Measurements published in publication PMC3375280 (PLoS ONE, 2012).
Substitutions are numbered along the chain they refer to.

Legend:
[1] = target: T1, AT1 F110A mutant receptor (Rattus norvegicus, UniProt P25095, F110A); test: competition binding, F110A mutant; settings: for Kd ratio relative to WT (in parentheses): F110A / WT; for Kd: F110A, COS1 membranes, read-out: Binding affinity (Kd)
T1 construct: expressed in transfected cells; host or cells: COS1
T1 sequence (P25095 1-359 F110A): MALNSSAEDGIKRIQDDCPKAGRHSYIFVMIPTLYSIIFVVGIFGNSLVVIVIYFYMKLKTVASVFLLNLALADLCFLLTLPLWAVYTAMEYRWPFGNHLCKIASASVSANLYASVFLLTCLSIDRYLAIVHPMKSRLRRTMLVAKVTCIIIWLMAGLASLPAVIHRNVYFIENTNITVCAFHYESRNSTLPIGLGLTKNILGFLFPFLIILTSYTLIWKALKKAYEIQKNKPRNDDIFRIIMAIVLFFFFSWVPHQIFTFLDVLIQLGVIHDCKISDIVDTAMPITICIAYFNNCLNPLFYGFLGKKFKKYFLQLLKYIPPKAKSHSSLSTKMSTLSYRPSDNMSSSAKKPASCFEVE
Method: (§1) The Kd and Bmax values of receptor binding were determined by ^125I-[Sar^1, Ile^8] […] Membranes expressing the WT or mutant AT1 receptors were incubated with 100 pM ^125I-[Sar^1, Ile^8] […] The binding reaction was terminated by filtering the incubation mixture through Whatman GF/C glass filters, and the residues were extensively washed further with binding buffer. The bound ligand fraction was determined from the counts per minute (cpm) remaining on the membrane. Binding kinetics values were determined as previously described.

[2] = target: T2, AT1 C76A/F117C/C289A mutant receptor (Rattus norvegicus, UniProt P25095, C289A/C76A/F117C); test: competition binding, C76A/F117C/C289A mutant; settings: for Kd ratio relative to WT (in parentheses): C76A/F117C/C289A / WT; for Kd: C76A/F117C/C289A, COS1 membranes, read-out: Binding affinity (Kd)
T2 construct: expressed in transfected cells; host or cells: COS1 cells (membranes)
T2 sequence (P25095 1-359 C76A/F117C/C289A): T1 sequence (P25095 1-359 F110A) with C76A, A110F, F117C, C289A
Method: as §1

[3] = target: T3, AT1 A106G mutant receptor (Rattus norvegicus, UniProt P25095, A106G); test: competition binding, A106G mutant; settings: for Kd ratio relative to WT (in parentheses): A106G / WT; for Kd: A106G, COS1 membranes, read-out: Binding affinity (Kd)
T3 construct: expressed in transfected cells; host or cells: COS1
T3 sequence (P25095 1-359 A106G): T1 sequence (P25095 1-359 F110A) with A106G, A110F
Method: as §1

[4] = target: T4, AT1 C76A/F110C/C289A mutant receptor (Rattus norvegicus, UniProt P25095, C289A/C76A/F110C); test: competition binding, C76A/F110C/C289A mutant; settings: for Kd ratio relative to WT (in parentheses): C76A/F110C/C289A / WT; for Kd: C76A/F110C/C289A, COS1 membranes, read-out: Binding affinity (Kd)
T4 construct: expressed in transfected cells; host or cells: COS1
T4 sequence (P25095 1-359 C76A/F110C/C289A): T1 sequence (P25095 1-359 F110A) with C76A, A110C, C289A
Method: as §1

[5] = target: T5, wild-type (WT) AT1 receptor (Rattus norvegicus, UniProt P25095); test: inositol phosphate (IP) production in COS1 cells expressing WT AT1 receptor; settings: 1 µM compound, vs basal IP production
T5 sequence (P25095 1-359): T1 sequence (P25095 1-359 F110A) with A110F
Method: The test compounds were added 1 h before the measurement of IP.
The WT and mutant AT1 receptors were transiently transfected into COS1 cells using Lipofectamine 2000 liposomal reagent (Roche Applied Science) according to the manufacturer’s instructions.
Cells expressing the WT and mutant AT1 receptors were incubated for 30 minutes at 22°C with or without the indicated concentrations of ARBs. The cells were washed-out once with the use of excess cold HBSS, and used in an IP production study. Total soluble IP was measured by the perchloric acid extraction method, as described previously [16].

[6] = target: T6, AT1 C76A/S115C/C289A mutant receptor (Rattus norvegicus, UniProt P25095, C289A/C76A/S115C); test: competition binding, C76A/S115C/C289A mutant; settings: for Kd ratio relative to WT (in parentheses): C76A/S115C/C289A / WT; for Kd: C76A/S115C/C289A, COS1 membranes, read-out: Binding affinity (Kd)
T6 construct: expressed in transfected cells; host or cells: COS1 cells (membranes)
T6 sequence (P25095 1-359 C76A/S115C/C289A): T1 sequence (P25095 1-359 F110A) with C76A, A110F, S115C, C289A
Method: as §1

Row | Compound | Kd ratio relative to WT (in parentheses) [1] [fold] | Kd [1] [nM] | Kd ratio relative to WT (in parentheses) [2] [fold] | Kd [2] [nM] | Kd ratio relative to WT (in parentheses) [3] [fold] | Kd [3] [nM] | Kd ratio relative to WT (in parentheses) [4] [fold] | Kd [4] [nM] | Pharmacological behaviour toward IP production (agonism / neutral antagonism / inverse agonism) [5] | Kd ratio relative to WT (in parentheses) [6] [fold] | Kd [6] [nM]
1 | CCCc1nc(C(C)(C)O)c(C(N)=O)n1Cc1ccc(-c2cc(Cc3ccc(O)cc3)ccc2-c2nnn[nH]2)cc1 [R794847] | 1.4 | 68 ± 19 | 0.6 | 29 ± 9 | 17 | 792 ± 202 | 2.6 | 126 ± 13 | agonism | 14 | 657 ± 114
2 | CCCc1nc(C(C)(C)O)c(C(=O)O)n1Cc1ccc(-c2ccccc2-c2nnn[nH]2)cc1 [Olmesartan, olmesartan, reference compound] | 1.1 | 2.6 ± 0.5 | 1.0 | 2.4 ± 1.3 | 2.6 | 6.1 ± 2.2 | 2.9 | 6.6 ± 2.4 | inverse agonist | 2.8 | 6.5 ± 1.8
3 | CCCc1nc(C(C)(C)O)c(C(N)=O)n1Cc1ccc(-c2ccccc2-c2nnn[nH]2)cc1 [R239470] | 1.5 | 1.2 ± 0.3 | 2.8 | 2.2 ± 0.2 | 6.0 | 4.8 ± 1.5 | 3.0 | 2.4 ± 1.1 | neutral antagonist | 5.3 | 4.2 ± 1.6
